# PMC12928749 (ACS catalysis, 2025)
# Columns and labels:
# [1] = molecular target: T1, TyrH (heme-dependent tyrosine hydroxylase) (Streptomyces sclerotialus, UniProt Z9QGI7APK5); experiment: UV-vis titration; format: binding; conditions: 100 mM potassium phosphate, 50 mM NaCl, pH 7.4; ferric enzyme
# T1 sequence (Z9QGI7APK5 1-314): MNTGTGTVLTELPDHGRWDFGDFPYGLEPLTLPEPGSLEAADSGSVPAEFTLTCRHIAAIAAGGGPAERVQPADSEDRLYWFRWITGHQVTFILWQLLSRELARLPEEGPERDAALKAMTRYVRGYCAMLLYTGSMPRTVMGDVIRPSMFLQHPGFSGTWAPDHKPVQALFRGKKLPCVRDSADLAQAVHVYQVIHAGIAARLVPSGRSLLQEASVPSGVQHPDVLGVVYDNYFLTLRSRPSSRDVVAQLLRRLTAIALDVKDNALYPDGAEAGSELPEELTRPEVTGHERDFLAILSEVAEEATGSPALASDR
# [2] = molecular target: T1, TyrH (heme-dependent tyrosine hydroxylase); experiment: steady-state kinetics; format: biochemical; conditions: co-substrate H2O2
SMILES,Kd [1] [µM],KM [2]
"O=Nc1ccccc1 [NB, nitrosobenzene]",296 ± 8,–
"N[C@@H](Cc1ccc(O)cc1)C(=O)O [L-Tyr, L-tyrosine]",–,The KM values for both tyrosine and HPPA were comparable (Figure S8)
"O=C(O)CCc1ccc(O)cc1 [HPPA, 3-(4-hydroxyphenyl)propionic acid]",–,The KM values for both tyrosine and HPPA were comparable (Figure S8)
